From patent publication US20150051231A1, “SYNERGISTIC COMBINATIONS OF TRIAZOLES, STROBILURINS AND BENZIMIDAZOLES, USES, FORMULATIONS, PRODUCTION PROCESSES AND APPLICATIONS USING THE SAME” (FMC Quimica do Brasil Ltda., priority 2010, published 2015) come the findings set out here.

Format in all cases: in vivo
In assay [1] the test system is Phakopsora pachyrhizi Sydow. Kind of assay: Field trial, interactions of fungicides for control of Asian soybean rust, flutriafol series (Tables 2 and 4), Rondonópolis-MT. To be noted: for Control (%) Lower canopy, obtained by AUDPC / Control (%) Upper canopy, obtained by AUDPC: rates g/há ai: Kresoxim-methyl 125, Azoxystrobin 30, Flutriafol 62.5, Flut+Carb+Kresoxim 62.5 + 200 + 125, Flut+Carb+Azoxystrobin 62.5 + 200 + 30, Flut+Carb 62.5 + 200. On the procedure: (§1) A study was prepared to analyze the interaction effect using the multiplicative model of distribution proposed by Colby (1967), using Equation 1 below to calculate the expected response: […]
(§2) wherein E is the expected reduction in disease development (such as the reduction in the percentage of expected control or the reduction in the area under the disease-progress curve), and x and y represent the reduction in disease development achieved by treatment with fungicide x and y, respectively.
Regarding the study of the interaction effect for the association of flutriafol+carbendazim+azoxystrobin and flutriafol+carbendazim+kresoxim-methyl, the model proposed by Colby was used.

For assay [2], the system named is Corynespora cassiicola. As to the kind of experiment: Target spot severity in soybean 14 days after the third application (Table 5), Rondonópolis-MT. To be noted: for Severity (%) C. cassiicola: 14 days after the third application; for control of target spot (C. cassiicola) in soybean crops, in words: isolated use, PrioriXtra under conditions of high disease severity. From the text:
(§3) In addition to these benefits, the association of the three fungicides—tebuconazole, carbendazim and azoxystrobin or tebuconazole, carbendazim and kresoxim-methyl provides greater safety regarding protection against the emergence of fungi resistant to fungicides and improved control spectrum.

For assay [3], the system named is Colletotrichum truncatum. Kind of assay: Anthracnose severity in soybean 14 days after the third application (Table 5), Rondonópolis-MT. To be noted: for Severity (%) C. truncatum: 14 days after the third application; for control of anthracnose (C. truncatum) in soybean crops, in words: isolated use, PrioriXtra under conditions of high disease severity.
Excerpt: as §3

Assay [4] concerns Phakopsora pachyrhizi Sydow. Kind of assay: Field trial, interactions of fungicides for control of Asian soybean rust, tebuconazole series (Tables 1 and 3), Rondonópolis-MT. To be noted: for control of rust (Phakopsora pachyrhizi Sydow) in soybean crops, in words: isolated use; for Control (%) Lower canopy, obtained by AUDPC / Control (%) Upper canopy, obtained by AUDPC: rates g/ha ai: Kresoxim-methyl 125, Azoxystrobin 30, Tebuconazole 100, Teb+Carb+Kresoxim 100 + 200 + 125, Teb+Carb+Azoxystrobin 100 + 200 + 30, Teb+Carb 100 + 200.
Excerpt: (See Table 1 below), carbendazim even at a dose of 250 g/ha ai, and tebuconazole at the dose of 100 g/ha ai.
The association of azoxystrobin with the tebuconazole+carbendazim mixture (BF 488) provided a control efficacy gain and a residual control effect even under high pressure of Asian rust. […] The addition of azoxystrobin from 6 g/ha ai in the mixture of tebuconazole+carbendazim (100+200 g/ha ai, respectively) has already reflected in rust efficacy gain, providing control similar to the efficacy standard of azoxystrobin+cyproconazole (60+24 g/ha ai, respectively), and this product is marketed by Syngenta as PrioriXtra®. The addition of azoxystrobin in doses of 18, 24 and 30 g/ha ai together with tebuconazole+carbendazim was effective for obtaining yields higher than the market standard containing 60 g/ha of azoxystrobin.
The association of kresoxim-methyl with the tebuconazole+carbendazim mixture (BF 452) provided a control efficacy gain and a residual control effect even under high pressure of Asian rust. […] The addition of kresoxim-methyl from 75 g/ha ai in the mixture of tebuconazole+carbendazim (100+200 g/ha ai, respectively) has already reflected in rust efficacy gain, providing control similar to the efficacy standard of azoxystrobin+cyproconazole (60+24 g/ha ai, respectively), and this product is marketed by Syngenta as PrioriXtra®.
as §1, §2
The possible interaction responses are: • a) antagonism, which is characterized by joint action of two fungicides showing the response of a test organism in their combination that is lower than the expected response, obtained by appropriate reference models, as proposed by Colby (1967); • b) synergism, which is the cooperative action of two fungicides showing a response in the test organism on the joint application that is higher than the expected response obtained by appropriate reference models, and • c) additive, which occurs when two fungicides react by presenting a response in the test organism on the joint application that is equal to the expected response obtained by appropriate reference models.
To use the model proposed by Colby, the association tebuconazole+carbendazim (100+200, respectively) was established for a comparative test with azoxystrobin or kresoxim-methyl and a response of the type of interaction (see Table 3 below).

Assay [5] concerns Phakopsora pachyrhizi Sydow. As to the kind of experiment: Field trial, soybean rust AUDPC and yield (Table 6), Rondonópolis-MT. An excerpt:
The association of azoxystrobin with the tebuconazole+carbendazim mixture provided high control efficacy of rust (see Table 6 below). […] The association of the three fungicides tebuconazole, carbendazim and azoxystrobin provides effective control of target spot (Corynespora cassiicola) and anthracnose (Colletotrichum truncatum) (see Table 5 above), and contains fungicides with three modes of action—carbendazim (benzimidazole)—acting on the integrity of tubulin; tebuconazole (triazole)—sterol synthesis inhibitors; azoxystrobin (strobilurin)—inhibits mitochondrial respiration.
The association of kresoxim-methyl with the tebuconazole+carbendazim mixture provided high control efficacy of rust (see Table 6 above). […] The association of the three fungicides tebuconazole, carbendazim and kresoxim-methyl provides effective control of target spot (Corynespora cassiicola) and anthracnose (Colletotrichum truncatum) (see Table 5 above), and contains fungicides with three modes of action—carbendazim (benzimidazole)—acting on the integrity of tubulin; tebuconazole (triazole)—sterol synthesis inhibitors; […] (strobilurin)-inhibits mitochondrial respiration.

In assay [6] the test system is Phakopsora pachyrhizi Sydow. To be noted: three preventive applications from R1. On the procedure: This study was conducted to evaluate the efficacy of the products in the control of Asian soybean rust. Preventive applications started in R1, with the second application occurring 20 days after the first application and the third application 15 days after the second. Emulsifiable mineral oil Assist was added, at the dose of 0.5% v/v in all treatments, except for the PrioriXtra treatments, in which 0.5% v/v Nimbus was added, and Fox, in which Aureo was added at the dose of 0.4 L/ha.

Assay [7] has as its system Phakopsora pachyrhizi Sydow. The note with it: three preventive applications from R1. On the procedure:
This study was conducted to evaluate the efficacy of the products in the control of Asian soybean rust (Favorita). Preventive applications started in R1, the second application was made 19 days after the first (in R4) and the third application was made 15 days after the second (in R5.3). Emulsifiable mineral oil Assist was added at the dose of 0.5% v/v in all treatments, except for the PrioriXtra treatments, in which 0.5% v/v Nimbus was added. […] The efficacy of BF 452 and BF 465 is consistent, reducing the disease throughout the soybean plant canopy.
This is another data set of the same source.

Assay [8] has as its system Phakopsora pachyrhizi Sydow. The note with it: three preventive applications from R1. On the procedure:
This study was conducted to evaluate the efficacy of the products in the control of Asian soybean rust (Valiosa). Preventive applications started in R1, the second application was made 19 days after the first (in R5.1) and the third application was made 15 days after the second (in R5.5). Emulsifiable mineral oil Assist was added at the dose of 0.5% v/v in all treatments, except for the PrioriXtra treatments, in which 0.5% v/v Nimbus was added.
This is another data set of the same source.

Assay [9] relates to Phakopsora pachyrhizi Sydow. To be noted: three preventive applications from V9. On the procedure: This study was conducted to evaluate the efficacy of the products in the control of Asian rust. The start of preventive applications in V9, the second application was made 20 days after the first (in R4) and the third application was made 15 days after the second. Emulsifiable mineral oil Assist was added, at the dose of 0.5% v/v in all treatments, except for the PrioriXtra treatments, in which 0.5% v/v Nimbus was added, and Fox, in which Aureo was added at the dose of 0.4 L/ha.

The structures appear in SMILES notation. Where two headings read alike, the source gives them in different places.

As to `OC(Cn1cncn1)(c1ccc(F)cc1)c1ccccc1F` (racemic) [flutriafol, (RS)-2,4′-difluoro-α-(1H-1,2,4-triazol-1-ylmethyl)benzhydryl alcohol], the “control of rust (Phakopsora pachyrhizi Sydow) in soybean crops, in words” value (“control of rust” below) in [1] (isolated use) was “not effective in controlling rust”. Besides, in assay [1] (rate 62.5 g/ha a.i.), the “AUPDC* Lower Canopy” value was found to be 1312.6, the “AUPDC* Upper Canopy” value was found to be 1097.2 and the Productivity turned out to be 1578.2 kg/ha. Besides, in [1], the “Control (%) Lower canopy, obtained by AUDPC” value (shortened to “Control (%) Lower canopy”) is listed as 24.0% and the “Control (%) Upper canopy, obtained by AUDPC” value (“Control (%) Upper canopy” below) is on record as 26.5%. Moreover, the “Severity (%) C. cassiicola” value in assay [2] (rate 62.5 g/ha a.i.) stood at 22.5%. Moreover, the “control of target spot (C. cassiicola) in soybean crops, in words” value (from here on “control of target spot (C. cassiicola)”) in assay [2] was “not effective”. The “Severity (%) C. truncatum” value in assay [3] (rate 62.5 g/ha a.i.) is on record as 31.3%. In addition, in [3], the “control of anthracnose (C. truncatum) in soybean crops, in words” value (“control of anthracnose (C. truncatum)” for short) was “not effective”.
As to `CC(C)(C)C(O)(CCc1ccc(Cl)cc1)Cn1cncn1` (racemic) [tebuconazole, (RS)-1-p-chlorophenyl-4,4-dimethyl-3-(1H-1,2,4-triazol-1-ylmethyl)pentan-3-ol], in assay [4], the “control of rust” value was “not effective in controlling rust”; the “Control (%) Lower canopy” value stood at 32%; the “Control (%) Upper canopy” value turned out to be 71%. In [4] (rate 100 g/ha a.i.), the “AUPDC* Lower Canopy” value worked out at 896.0, the “AUPDC* Upper Canopy” value turned out to be 427.0 and the Productivity was found to be 2152.0 kg/ha. The “Severity (%) C. cassiicola” value in [2] (rate 100 g/ha a.i.) worked out at 23.5%. Also, the “control of target spot (C. cassiicola)” value in [2] is given as “not effective”. Besides, the “Severity (%) C. truncatum” value in assay [3] (rate 100 g/ha a.i.) worked out at 30.0%. For the same compound, in [3], the “control of anthracnose (C. truncatum)” value is recorded as “not effective”. In assay [5] (rate 100 g/ha a.i.), the “AUPDC* Lower Canopy” value is reported as 747.4, the “AUPDC* Upper Canopy” value is 227.5 and the Productivity came out at 2570.8 kg/ha. For the same compound, the “efficacy in controlling soybean rust, in words” value (“efficacy” below) in assay [6] was “not effective in controlling soybean rust”. The “efficacy” value in [7] is listed as “not effective in controlling soybean rust”. Moreover, the “efficacy” value in assay [8] is reported as “not effective in controlling soybean rust”. Besides, in assay [9], the “efficacy” value was “not effective in controlling soybean rust”.
Consider `COC(=O)Nc1nc2ccccc2[nH]1` [carbendazim], for which, in [4], the “control of rust” value is “not effective in controlling rust”. In [4] (rate 250 g/ha a.i.), the “AUPDC* Lower Canopy” value is 261.0, the “AUPDC* Upper Canopy” value worked out at 1148.0 and the Productivity turned out to be 1324.0 kg/ha. In addition, in [1] (rate 250 g/ha a.i.), the “AUPDC* Lower Canopy” value was determined as 1576.3, the “AUPDC* Upper Canopy” value was 1317.0 and the Productivity came out at 1293.0 kg/ha. Further, in assay [5] (rate 250 g/ha a.i.), the “AUPDC* Lower Canopy” value is listed as 361.8, the “AUPDC* Upper Canopy” value is on record as 247.5 and the Productivity is recorded as 1323.7 kg/ha.
As to `CO/N=C(/C(=O)OC)c1ccccc1COc1ccccc1C` [kresoxim-methyl, methyl(E)-methoxyimino[α-(o-tolyloxy)-o-tolyl]acetate], in [4], the “control of rust” value is recorded as “not effective in controlling rust”; the “Control (%) Lower canopy” value is recorded as 13%; the “Control (%) Upper canopy” value is recorded as 34%. Also, in [4] (rate 125 g/ha a.i.), the “AUPDC* Lower Canopy” value worked out at 1146.0, the “AUPDC* Upper Canopy” value was 978.0 and the Productivity was 1349.0 kg/ha. Further, in assay [1] (rate 125 g/ha a.i.), the “AUPDC* Lower Canopy” value was determined as 1415.8, the “AUPDC* Upper Canopy” value is listed as 1261.3 and the Productivity is on record as 1479.5 kg/ha. Further, in assay [1], the “Control (%) Lower canopy” value was found to be 18.0% and the “Control (%) Upper canopy” value worked out at 15.5%. Also, in [2] (rate 125 g/ha a.i.), the “Severity (%) C. cassiicola” value is on record as 22.3%. In [2], the “control of target spot (C. cassiicola)” value is on record as “not effective”. Further, the “Severity (%) C. truncatum” value in assay [3] (rate 125 g/ha a.i.) came to 19.5%. In [3], the “control of anthracnose (C. truncatum)” value is reported as “not effective”. Further, in assay [5] (rate 125 g/ha a.i.), the “AUPDC* Lower Canopy” value is on record as 1245.9, the “AUPDC* Upper Canopy” value turned out to be 1074.1 and the Productivity was determined as 1848.5 kg/ha.
